From patent publication US20240368655A1, “CLICK HANDLE-MODIFIED DEOXY-FLUOROARABINO NUCLEIC ACID AS A SYNTHETIC GENETIC POLYMER CAPABLE OF POST-POLYMERIZATION FUNCTIONALIZATION” (THE TRUSTEES OF BOSTON COLLEGE, priority 2023, published 2024)
“Also recorded” adds a separate entry of the source.

Molecular target: T1, Thermococcus gorgonarius (Tgo) DNA polymerase (Thermococcus gorgonarius, UniProt P56689)
T1 construct: made in house
T1 sequence (P56689 1-773): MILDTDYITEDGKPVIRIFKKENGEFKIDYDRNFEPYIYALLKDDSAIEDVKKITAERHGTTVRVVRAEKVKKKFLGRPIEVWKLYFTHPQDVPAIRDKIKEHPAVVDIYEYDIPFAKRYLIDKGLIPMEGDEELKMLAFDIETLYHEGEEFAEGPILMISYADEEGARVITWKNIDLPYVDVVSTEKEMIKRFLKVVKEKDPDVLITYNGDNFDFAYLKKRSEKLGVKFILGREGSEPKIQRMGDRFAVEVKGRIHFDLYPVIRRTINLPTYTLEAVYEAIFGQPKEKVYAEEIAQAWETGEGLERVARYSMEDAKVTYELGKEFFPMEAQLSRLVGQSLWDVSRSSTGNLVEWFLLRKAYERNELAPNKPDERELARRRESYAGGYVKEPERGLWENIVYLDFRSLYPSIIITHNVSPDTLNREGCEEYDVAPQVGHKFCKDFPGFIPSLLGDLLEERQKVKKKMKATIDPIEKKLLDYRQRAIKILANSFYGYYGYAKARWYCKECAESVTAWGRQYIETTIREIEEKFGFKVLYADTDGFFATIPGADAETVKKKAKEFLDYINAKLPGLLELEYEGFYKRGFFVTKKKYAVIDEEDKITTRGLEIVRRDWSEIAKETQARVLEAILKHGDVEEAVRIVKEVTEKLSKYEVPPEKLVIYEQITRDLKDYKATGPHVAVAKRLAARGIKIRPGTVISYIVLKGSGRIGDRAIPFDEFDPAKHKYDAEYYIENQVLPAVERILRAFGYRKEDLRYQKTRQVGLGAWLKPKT
Test: DNA-templated primer extension by Tgo DNA polymerase
Type: biochemical
Conditions: with FANA ATP, CTP, GTP, DNA primer-template complex
Procedure: It was hypothesized that Thermococcus gorgonarius (Tgo) DNA polymerase could tolerate the 5-1,7-octadiyne modification on uracil and that the enzyme could incorporate FANA nucleotides. To investigate the hypothesis, a primer extension experiment was performed, in which a DNA primer-template complex was enzymatically extended by Tgo DNA polymerase using commercially available FANA nucleotide triphosphates (A, C, and G) as well as C8-alkyne-FANA UTP 11. The DNA template was prepared to contain a 40-nucleotide (nt) random region to avoid sequence bias, as well as a 24-nt poly-AAC tail at the 3′-end, which would not be transcribed, to provide a mobility difference between extension product (76 nt) and DNA template (100 nt) in denaturing polyacrylamide gel electrophoresis (PAGE). The DNA primer was labeled by a 5′-Cy5 fluorophore to allow easy detection of the extended product. A control experiment in which all FANA nucleotide triphosphates comprising natural bases (A, C, G and T) was also conducted to determine the impact of the 5-1,7-octadiyne modification of uracil on the primer extension reactivity. Tgo DNA polymerase was added in various amounts to confirm that the generation of the extended products was mediated by the Tgo DNA polymerase in a dose-dependent fashion. […]

## 5-octa-1,7-diynyluracil 2′-deoxy-2′-fluoroarabino triphosphate [compound 11]
  recognition and incorporation as substrate in primer extension: produced the full-length products in a polymerase dose-dependent fashion
Listed as C8-alkyne-FANA UTP
  recognition and incorporation as substrate in primer extension: successfully served as a substrate; also recorded: quantitatively incorporated
